Patent US6743937B2, “Efficient method of synthesizing combretastatin A-4 prodrugs” (OxiGene, Inc., priority 2000, dated 2004)

Columns and labels:
[1] = Aqueous solubility at 25° C. as a function of pH; format: physicochemical; settings: for Aqueous solubility: 25° C., based on cis-CA4P free acid
[2] = Moisture sorption at 25° C.; format: physicochemical; settings: for Loss on drying at 1% RH / Wt. gain at 30-70% RH / Wt. gain at > 70% RH: moisture sorption at 25° C.
[3] = Solubility in organic solvents at 25° C.; format: physicochemical; settings: based on cis-CA4P free acid; for Solubility in Acetone: BQL = below quantitation limit of the HPLC method
[4] = Comparison of physical stability of Process A and Process B materials (DSC, TGA, powder-XRD, solubility); settings: based on the available data
[5] = cited from earlier work

`COc1ccc(/C=C\c2cc(OC)c(OC)c(OC)c2)cc1OP(=O)([O-])[O-].[Na+].[Na+]` [Process A Product, combretastatin A-4 disodium phosphate] showed an Aqueous solubility ([1]; pH 0.6 (adjusted with HCl)) of 2.27 mg/mL, an Aqueous solubility ([1]; pH 0.8 (adjusted with HCl)) of 0.83 mg/mL and an Aqueous solubility ([1]; pH 1.2 (adjusted with HCl)) of 0.35 mg/mL. It also gave an Aqueous solubility ([1]; pH 5.2 (adjusted with HCl)) of 77.4 mg/mL, an Aqueous solubility ([1]; pH 5.6 (adjusted with HCl)) of 76.8 mg/mL and an Aqueous solubility ([1]; pH 7.1 (adjusted with HCl)) of 169 mg/mL. For the same compound, the Aqueous solubility ([1]; pH 7.2 (adjusted with HCl)) was 204 mg/mL, the Aqueous solubility ([1]; pH 7.8 (adjusted with HCl)) was 208 mg/mL and the Aqueous solubility ([1]; pH 9.4 (in water)) was 213 (in water) mg/mL. For the same compound, the “Hygroscopicity compared between products” value [2] was “greater degree of hygroscopicity than the Product B product”, the “Loss on drying at 1% RH” value [2] was 5.7% and the “Wt. gain at 30-70% RH” value [2] was 7-8.6%. The “Wt. gain at > 70% RH” value [2] was 9-30%, the “Solubility in Ethanol” value [3] was “Ethanol = 0.18 mg/mL” and the “Solubility in Methanol” value [3] was “Methanol = 22.4 mg/mL”. For the same compound, the “Solubility in Acetone” value [3] was “Acetone = 0.45 mg/mL”.

With `COc1ccc(/C=C\c2cc(OC)c(OC)c(OC)c2)cc1OP(=O)([O-])[O-].[Na+].[Na+]` [Process B Product, disodium salt of combretastatin A-4 phosphate] the Aqueous solubility ([1]; pH 0.8 (adjusted with HCl)) was 0.21 mg/mL, the Aqueous solubility ([1]; pH 0.97 (adjusted with HCl)) was 0.25 mg/mL and the Aqueous solubility ([1]; pH 2.20 (adjusted with HCl)) was 1.61 mg/mL. The Aqueous solubility ([1]; pH 3.26 (adjusted with HCl)) was 5.35 mg/mL, the Aqueous solubility ([1]; pH 6.96 (adjusted with HCl)) was 34.7 mg/mL and the Aqueous solubility ([1]; pH 7.28 (adjusted with HCl)) was 81.2 mg/mL. The Aqueous solubility ([1]; pH 7.35 (adjusted with HCl)) was 94.3 mg/mL, the Aqueous solubility ([1]; pH 8.40 (adjusted with HCl)) was 115 mg/mL and the Aqueous solubility ([1]; pH 9.4 (in water)) was 118 (in water) mg/mL. For the same compound, the “Solubility compared between products” value ([1]; both aqueous and organic solvents at 25° C.) was “consistently lower solubility than the Process A product”, the “Physical stability compared between products” value [4] was “physically more stable material than Process A” and the “Loss on drying at 1% RH” value [2] was 6.6%. For the same compound, the “Wt. gain at 30-70% RH” value [2] was 3%, the “Wt. gain at > 70% RH” value [2] was “upto 30%” and the “Solubility in Ethanol” value [3] was “Ethanol = 0.096 mg/mL”. For the same compound, the “Solubility in Methanol” value [3] was “Methanol = 1.77 mg/mL” and the “Solubility in Acetone” value [3] was “Acetone = BQL^$”.

For `COc1ccc(/C=C\c2cc(OC)c(OC)c(OC)c2)cc1O` [combretastatin A-4], the Solubility in water [5] is given as “extremely poor solubility in water”.
